Test results as given in the supplement of paper PMC10307832.

How the values were obtained:
Assay in all cases: relative viability (nuclei count vs DMSO), 5 days (fraction); higher = more cells survive
Linsitinib + Olaparib = compound: C[C@]1(O)C[C@@H](c2nc(-c3ccc4ccc(-c5ccccc5)nc4c3)c3c(N)nccn32)C1 [Linsitinib] + O=C(c1cc(Cc2n[nH]c(=O)c3ccccc23)ccc1F)N1CCN(C(=O)C2CC2)CC1 [Olaparib] (partner 8 µM)
Outline: (§1)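 One day after seeding in 1536-well plates, lung cancer cell lines were dosed by pin tool. Dosing was either single-drug or a fixed anchor-drug dose plus five library-drug doses (not always all listed) in √10 steps. After 5 days, nuclei were stained in one fix-and-stain step and counted on 4× images, and relative viability is the nuclei count of treated wells over that of vehicle wells, given as the median of duplicate plates.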

Ispinesib + Decitabine = compound: Cc1ccc(C(=O)N(CCCN)[C@@H](c2nc3cc(Cl)ccc3c(=O)n2Cc2ccccc2)C(C)C)cc1 [Ispinesib] + Nc1ncn([C@H]2C[C@H](O)[C@@H](CO)O2)c(=O)n1 [Decitabine] (partner 2 µM)
Outline: as §1

Linsitinib + Navitoclax = compound: C[C@]1(O)C[C@@H](c2nc(-c3ccc4ccc(-c5ccccc5)nc4c3)c3c(N)nccn32)C1 [Linsitinib] + CC1(C)CCC(c2ccc(Cl)cc2)=C(CN2CCN(c3ccc(C(=O)NS(=O)(=O)c4ccc(N[C@H](CCN5CCOCC5)CSc5ccccc5)c(S(=O)(=O)C(F)(F)F)c4)cc3)CC2)C1 [Navitoclax] (partner 0.5 µM)
Outline: as §1

Linsitinib + Trametinib = compound: C[C@]1(O)C[C@@H](c2nc(-c3ccc4ccc(-c5ccccc5)nc4c3)c3c(N)nccn32)C1 [Linsitinib] + CC(=O)Nc1cccc(-n2c(=O)n(C3CC3)c(=O)c3c(Nc4ccc(I)cc4F)n(C)c(=O)c(C)c32)c1 [Trametinib] (partner 0.02 µM)
Outline: as §1

Cell Line	relative viability (Linsitinib + Olaparib; first compound 0.01 µM)	relative viability (Linsitinib + Olaparib; first compound 0.03162 µM)	relative viability (Linsitinib + Olaparib; first compound 0.1 µM)	relative viability (Linsitinib + Olaparib; first compound 0.3162 µM)	relative viability (Linsitinib + Olaparib; first compound 1 µM)	relative viability (Ispinesib + Decitabine; first compound 0.001 µM)	relative viability (Ispinesib + Decitabine; first compound 0.003162 µM)	relative viability (Ispinesib + Decitabine; first compound 0.01 µM)	relative viability (Ispinesib + Decitabine; first compound 0.03162 µM)	relative viability (Ispinesib + Decitabine; first compound 0.1 µM)	relative viability (Linsitinib + Navitoclax; first compound 0.01 µM)	relative viability (Linsitinib + Navitoclax; first compound 0.03162 µM)	relative viability (Linsitinib + Navitoclax; first compound 0.1 µM)	relative viability (Linsitinib + Navitoclax; first compound 0.3162 µM)	relative viability (Linsitinib + Navitoclax; first compound 1 µM)	relative viability (Linsitinib + Trametinib; first compound 0.01 µM)	relative viability (Linsitinib + Trametinib; first compound 0.03162 µM)	relative viability (Linsitinib + Trametinib; first compound 0.1 µM)	relative viability (Linsitinib + Trametinib; first compound 0.3162 µM)	relative viability (Linsitinib + Trametinib; first compound 1 µM)
NCI-H1793	0.772	0.841	0.628	0.666	0.697	0.411	0.473	0.624	0.524	0.229	0.374	0.353	0.469	0.322	0.425	0.414	0.479	0.457	0.36	0.395
NCI-H1355	0.741	0.742	0.628	0.483	0.353	0.364	0.364	0.405	0.33	0.307	0.888	0.868	0.881	0.729	0.659	0.424	0.353	0.352	0.323	0.246
COR-L23	0.375	0.292	0.346	0.299	0.29	0.447	0.388	0.454	0.176	0.141	0.915	1.01	1.11	0.931	0.897	0.623	0.505	0.548	0.475	0.507
HCC-44	1.01	0.924	1	0.858	0.916	0.909	0.954	0.967	0.795	0.453	1.01	0.839	0.85	0.718	0.794	0.94	1.04	1.01	0.716	0.923
A-427	0.71	0.73	0.75		0.584	0.578	0.539	0.587	0.395	0.3	0.97	0.964	0.999		0.967	0.779	0.69	0.707		0.626
NCI-H520	0.349	0.395	0.344		0.346	0.54	0.469	0.33	0.226	0.227	1.15	0.685	1.1		0.893	0.618	0.64	0.641		0.712
LXF-289	1.11	1.13	1.17	0.797	1.05	0.359	0.388	0.387	0.404	0.349	0.951	0.932	0.929	0.783	0.939	0.641	0.535	0.674	0.519	0.665
NCI-H2087	0.572	0.639	0.609	0.51	0.47	0.346	0.297	0.241	0.194	0.122	1.1	1.05	0.861	0.843	0.821	0.197	0.204	0.183	0.15	0.191
NCI-H596	0.736	0.614	0.677	0.66	0.604	1.02	1.89	1.15	1.02	0.885	0.835	1.01	0.938	0.805	0.931	0.705	0.715	0.74	0.827	0.732
PC-14	0.26	0.177	0.303	0.233	0.263	0.21	0.18	0.0598	0.0507	0.0665	0.968	1.01	1.03	0.984	0.944	0.684	0.681	0.618	0.699	0.575
NCI-H1915	0.238	0.221	0.243	0.225	0.237	0.233	0.281	0.268	0.291	0.229	0.813	0.811	0.81	0.681	0.781	0.292	0.332	0.292	0.308	0.268
NCI-H647	0.472	0.509	0.735	0.442	0.48	0.49	0.409	0.326	0.179	0.157	1.24	1.12	1.18		1.05	0.478	0.509	0.436	0.338	0.351
NCI-H322M	0.746	0.875	0.87	0.772	0.798	0.744	0.771	0.697	0.666	0.559	1.3	1.4	1.25	1.23	1.27	0.513	0.548	0.571	0.531	0.473
NCI-H2170	0.533	0.519	0.598		0.506	0.518	0.532	0.548	0.46	0.379	0.615	0.622	0.456	0.543	0.501	0.948	0.906	0.849		0.89
BEN	1.03	0.987	1.17	0.686	0.953	0.714	0.737	0.785	0.421	0.375	0.0565	0.0788	0.0565	0.0421	0.0587	1.12	1.02	1.03	0.869	1.11
NCI-H2009	0.652	0.672	0.744	0.533	0.695	0.447	0.365	0.383	0.366	0.244	1.15	1.24	1.22	1.01	1.2	0.275	0.266	0.256	0.307	0.242

Cell Line	relative viability (Linsitinib + Olaparib; first compound 0.01 µM)	relative viability (Linsitinib + Olaparib; first compound 0.03162 µM)	relative viability (Linsitinib + Olaparib; first compound 0.1 µM)	relative viability (Linsitinib + Olaparib; first compound 0.3162 µM)	relative viability (Linsitinib + Olaparib; first compound 1 µM)	relative viability (Ispinesib + Decitabine; first compound 0.001 µM)	relative viability (Ispinesib + Decitabine; first compound 0.003162 µM)	relative viability (Ispinesib + Decitabine; first compound 0.01 µM)	relative viability (Ispinesib + Decitabine; first compound 0.03162 µM)	relative viability (Ispinesib + Decitabine; first compound 0.1 µM)	relative viability (Linsitinib + Navitoclax; first compound 0.01 µM)	relative viability (Linsitinib + Navitoclax; first compound 0.03162 µM)	relative viability (Linsitinib + Navitoclax; first compound 0.1 µM)	relative viability (Linsitinib + Navitoclax; first compound 0.3162 µM)	relative viability (Linsitinib + Navitoclax; first compound 1 µM)	relative viability (Linsitinib + Trametinib; first compound 0.01 µM)	relative viability (Linsitinib + Trametinib; first compound 0.03162 µM)	relative viability (Linsitinib + Trametinib; first compound 0.1 µM)	relative viability (Linsitinib + Trametinib; first compound 0.3162 µM)	relative viability (Linsitinib + Trametinib; first compound 1 µM)
LC-2-ad	0.621	0.751	0.73	0.625	0.685	0.847	0.787	0.872	0.815	0.54	0.368	0.406	0.486	0.339	0.368	0.906	0.718	0.942	0.864	0.827
NCI-H1437	0.636	0.632	0.667	0.636	0.584	0.552	0.605	0.677	0.652	0.228	1.03	0.994	1.1	1.01	1.02	0.518	0.518	0.519	0.34	0.352
NCI-H3122	0.557	0.541	0.547		0.503	0.498	0.443	0.426	0.483	0.292	1.02	1.05	1.04	1.02	1.08	0.259	0.213	0.253		0.232
NCI-H727	0.694	0.773	0.747	0.449	0.601	0.651	0.864		0.737	0.761	0.406	0.539	0.376	0.19	0.184	0.349	0.403	0.317	0.358	0.29
NCI-H1734	0.592	0.625	0.593	0.57	0.535	0.538	0.528	0.591	0.54	0.391	0.77	0.865	0.925	0.821	0.784	0.642	0.685	0.61	0.468	0.605
HCC-15	0.697	0.938	0.759	0.364	0.655	0.706	0.768	0.752	0.418	0.225	0.657	0.698	0.693	0.489	0.62	0.376	0.376	0.286	0.264	0.287
NCI-H2405	0.881	0.879	0.886	0.705	0.699	0.754	0.741	0.845	0.831	0.695	0.906	0.72	0.954	0.716	0.846	0.66	0.6	0.607	0.708	0.401
NCI-H1993	1.09	0.692	0.879	0.698	0.982	0.679	0.667	0.555	0.678	0.479	0.937	0.902	0.839	1.01	0.6	0.46	0.494	0.398	0.476	0.504
NCI-H1650	0.871	0.954	0.883	0.735	0.523	0.527	0.448	0.45	0.331	0.185	1.33	1.36	1.29	0.743	1.1	0.592	0.524	0.537	0.464	0.349
NCI-H460	0.423	0.273	0.421		0.332	0.533	0.516	0.699	0.146	0.0478	1.08	0.97	1.25	1.01	1.12	0.136	0.137	0.196		0.0792
NCI-H1651	0.18	0.169	0.191	0.171	0.178	0.582	0.688	0.67	0.559	0.508	0.978	1.1	0.925	0.958	0.981	0.827	0.861	0.884	0.777	0.824
NCI-H1975	0.775	0.678	0.737	0.645	0.584	0.382	0.436	0.37	0.288	0.221	1.08	0.941	1.04	1.12	0.8	0.396	0.336	0.331	0.308	0.272
NCI-H2126	0.962	0.957	0.934	0.779	0.862	0.541	0.536	0.57	0.551	0.559	0.95	0.808	0.945	0.925	0.878	0.568	0.552	0.533	0.509	0.473
201T	0.874	0.61	0.84	0.676	0.862	0.849	0.859	0.897	0.889	0.839	1.22	1.26	1.23	1.29	1.24	0.7	0.736	0.702	0.72	0.753
HCC-78		1	0.706	0.916	0.506	0.68	0.732	0.825	0.577	0.578	0.882	0.889	0.711	0.789	0.661		0.913	0.698	0.736	0.578
SK-LU-1	0.428	0.419	0.552	0.41	0.468	0.605	0.62	0.608	0.57	0.361	0.903	0.777	0.793		0.774	0.551	0.349	0.538	0.471	0.534
